Measurements reported in patent US20230158057A1, “COMPOSITIONS AND METHODS FOR THE TREATMENT OF PAIN” (Duke University, priority 2020, published 2023).

Legend:
DRG nociceptors [1] = experiment: Whole-mount DRG patch clamp from tumor-bearing mice ex vivo; format: cell-based, mouse; conditions: 30 μM, 2 h, DRGs isolated d11
Excerpt: Whole-cell patch clamp recordings in whole-mount DRGs ex vivo. Four-week-old male C57BL/6 mice were used to establish the bone cancer pain model by intrafemoral inoculation of LLC, leading to nociceptor hyperexcitability in the ipsilateral L3-L5 DRGs which extend afferent nerve fibers to the tumor-bearing femur. […] 11d after tumor implantation, mice were euthanized followed by careful isolation of L3-L5 DRGs, which were placed in oxygenated artificial cerebrospinal fluid. DRGs were lightly digested for 20 minutes using an enzymatic mixture consisting of 0.32 ml collagenase A (1 mg/mL) and Trypsin (0.25%). Intact DRGs were then incubated in ACSF oxygenated with 95% O2 and 5% CO2, supplemented with vehicle (PBS) or 30 μM DMXAA in PBS for 2 hours at 37° C. Following incubation, DRGs were transferred to a recording chamber, where neurons could be visualized using a 40× water-immersion objective on an Olympus BX51WI microscope. Patch pipettes were pulled from borosilicate capillaries (Chase Scientific Glass Inc.) and filled with a pipette solution containing (in mM): 126 potassium gluconate, 10 NaCl, 1 MgCl2, 10 EGTA, 2 Na-ATP, and 0.1 Mg-GTP, adjusted to pH 7.3 with KOH. The external solution was composed of (in mM): 140 NaCl, 5 KCl, 2 CaCl2, 1 MgCl2, 10 HEPES, 10 glucose, adjusted to pH 7.4 with NaOH. […] Data were recorded and analyzed using the pClamp10 (Axon Instruments) software.

IFN-β = experiment: YFP (IFN-β) expression in DRG neurons of Ifnb1YFP/YFP reporter mice; format: in vivo, mouse
Experimental: Genetic mouse models: All mouse procedures were approved by the Duke University Institutional Animal Care and Use Committee (IACUC) and complied with relevant ethical guidelines. Mice were housed in an animal facility approved by the Association for Assessment and Accreditation of Laboratory Animal Care (AAALAC) under a 12 h light/dark cycle with food and water available ad libitum. All commercially-available genetic mouse models were obtained from Jackson Labs and maintained on a C57BL/6J background, including: Ifnb1YFP reporter mice (strain #010818) 1, STING “goldenticket” knockout mice 2 (STINGgt/gt; strain #017537), STING floxed/conditional knockout mice 3 (STINGfx/fx; strain #031670), Ifnar1 global knockout mice (Ifnar1−/−; strain #028288), Ifnar1 floxed/conditional knockout mice 4 (Ifnar1fx/fx; strain #028256), cGAS knockout mice 5 (cGAS−/−; strain #026554), and RIG-I knockout mice (RIG-I−/−; strain #46070-JAX). Nav1.8-Cre mice 6, also maintained on a C57BL/6J background, were a gift from Rohini Kuner (University of Heidelberg). NOD.CB17-Prkdcscid mice were also obtained from Jackson Labs (strain #001303) and maintained in a NOD/ShiLtSz genetic background. Unless otherwise noted, all experiments were conducted in adult (8-12-week-old) mice. Animals were randomly assigned to each experimental group. Both males and females were included in each group in a sex-matched manner. […]

DRG nociceptors [2] = experiment: Whole-cell patch clamp recordings in whole-mount DRGs ex vivo; format: cell-based, mouse; conditions: PTX-treated Ifnar1-WT or Ifnar1-KO mice, ex vivo incubation 30 μM
Experimental: Whole-cell patch clamp recordings in whole-mount DRGs ex vivo: To test the effects of anti-IFNβ neutralizing antibodies, naïve male and female mice were utilized. […] To perform whole-cell patch clamp recordings in whole-mount DRGs, L1-L5 DRGs were carefully isolated and placed in oxygenated ACSF. Using a stereoscope, peripheral and central DRG projections and connective tissue were dissected away. DRGs were lightly digested for 20 minutes using an enzymatic mixture consisting of 0.32 ml collagenase A (1 mg/mL) and Trypsin (0.25%). […] Following incubation, DRGs were transferred to a recording chamber, where neurons could be visualized using a 40× water-immersion objective on an Olympus BX51WI microscope. The recording chamber was continuously perfused (2-3 ml/min) with ACSF. The pipette solution contained 140 mM KC1, 2 mM MgCl2, 10 mM HEPES, 2 mM Mg-ATP at pH 7.4. The resistance of the glass pipettes was 8-10 MΩ. Data were acquired and analyzed using the pClamp10 (Axon Instruments) software.

Row | Compound | current-evoked action potential firing (DRG nociceptors [1]) | rheobase of nociceptors (DRG nociceptors [1]) | YFP (IFN-β) expression in DRG neurons (IFN-β) | action potential firing of DRG nociceptors (DRG nociceptors [2])
1 | Cc1ccc2c(=O)c3cccc(CC(=O)O)c3oc2c1C [DMXAA, 2-(5,6-dimethyl-9-oxo-9H-xanthen-4-yl)acetic acid] | sharply reduced the cancer-induced increase in current-evoked action potential firing | markedly increased the rheobase of nociceptors |  | 
2 | Nc1ncnc2c1ncn2[C@@H]1O[C@@H]2COP(=O)([S-])O[C@@H]3[C@H](O)[C@@H](COP([O-])(=S)O[C@H]2[C@H]1O)O[C@H]3n1cnc2c(N)ncnc21.[Na+].[Na+] (stereo partly drawn) [ADU-S100, (2′-5′)-[P(R)]-5′-O-[(R)-hydroxymercaptophosphinyl]-P-thioadenylyl-adenosine cyclic dinucleotide] |  |  | increased after ADU-S100 treatment | dramatically reduced action potential firing in WT mice, and this effect was abolished in Ifnar1-deficient neurons
